According to PMC6270814, “Effects of Ursolic Acid Derivatives on Caco-2 Cells and Their Alleviating Role in Streptozocin-Induced Type 2 Diabetic Rats” (Molecules, 2014):

Columns and labels:
[1] = MTT cytotoxicity assay on Caco-2 cells; format: cell-based, Human; conditions: human
Procedure: (§1) Human intestinal Caco-2 cells (ATCC, Rockville, MD, USA) were incubated at 37 °C in a humidified atmosphere of 5% CO2 in air. The cells were cultured in Dulbecco’s […] medium (DMEM) with 10% heat-inactivated fetal bovine serum, 1% non-essential amino acids, 1% L-glutamine, 1% penicillin/streptomycin (Gibco Life Technologies, Grand Island, NY, USA). The cells were sub-cultured at confluence by 0.05% trypsin-0.5 mM EDTA treatment before they were applied in the experiment.
(§2) A MTT test was conducted to determine the possible toxicity of UA and its derivatives to Caco-2 cells. Briefly, cells were seeded at a density of 1 × 10^4 cells/mL in a 96-well plate and incubated for 24 h. The next day, cells were incubated with vehicle (0.1% DMSO) and compounds at 100, 50, 25, 12.5 μmol/L for 24 h, and then 5 g/L MTT solution (20 μL) was added for 4 h. Absorbance at 570 nm was measured using a Multimodel Plate Reader (Infinite 200, Tecan, Mannedorf, Switzerland).

Caco-2 cells [2] = test: MTT cytotoxicity assay on Caco-2 cells; format: cell-based, Human; conditions: Homo sapiens, 24 h, mean ± SD, n = 4, read-out: Inhibition Rate %
Procedure: as §1, §2

[3] = tested on: STZ-induced diabetic rats; test: Oxidative stress markers (GSH, SOD, MDA) in liver and kidney of STZ-induced diabetic rats; format: in vivo, rat; conditions: 4 weeks
Procedure: (§3) Diabetes was induced by a single intraperitoneal injection of streptozotocin (Sigma-Aldrich, St. Louis, MO, USA) at a dose of 65 mg/kg body weight. STZ was dissolved in 0.1 M cold citrate buffer, pH 4.5. Control group were injected with citrate buffer alone. After 7 days for the development of diabetes, plasma glucose levels were determined of each rat. Rats with fasting blood glucose (FBG) range of above 16.7 mmol/L were considered as DM rats and were used for further study.
(§4) According to the body weight and plasma glucose levels the rats were divided randomly into seven groups with six rats each and treated as follows: • Group I: Normal rats treated with 0.5% CMC-Na (2 mL/200 g body weight). • Group II: Diabetic rats treated with 0.5% CMC-Na. • Group III: Diabetic rats treated with 10 mg/kg of glibenclamide. • Group IV: Diabetic rats treated with 100 mg/kg of compound 1 (UA). • Group V: Diabetic rats treated with 100 mg/kg of compound 10. • Group VI: Diabetic rats treated with 100 mg/kg of compound 11. • Group VII: Diabetic rats treated with 100 mg/kg of compound 12.
(§5) The treatment was continued daily for 28 days. Blood glucose levels and body weight were measured every week to ascertain the status of diabetes. After 4 weeks of treatment, the animals were fasted for 12 h and sacrificed by cervical dislocation under mild anaesthetization, blood was collected into heparinized tubes and centrifuged at 2,000 rpm for 10 min. Livers and kidneys were removed, washed and homogenized in ice-cold normal saline. This homogenates were centrifuged at 3,000 rpm for 10 min at 4 °C, and the supernatants were collected for the estimate of antioxidant markers.
The tissue homogenates of liver and kidney were used for the estimate of antioxidant markers. Glutathione (GSH) level was measured with 5, 5'-dithiobis-(2-nitrobenzoic acid) (DTNB) as described by Sedlak and Lindsay. Superoxide dismutase (SOD) activity was assessed according to the method of Sinha. Malondialdehyde (MDA) activity was estimated with the thiobarbituric acid method.

[4] = tested on: STZ-induced diabetic rats; test: Serum lipid profile (TG, TC, LDL-C, HDL-C) in STZ-induced diabetic rats; format: in vivo, rat; conditions: 4 weeks, compounds 100 mg/kg, glibenclamide 10 mg/kg
Procedure: as §3, §4, §5
(§6) Fasting blood glucose levels were estimated on days 0, 7, 14, 28 with the single touch glucometer (Life Scan, Johnson & Johnson Company, New Brunswick, NJ, USA). Serum insulin level was measured by use of a commercial immunoassay kit by enzyme linked immunosorbent assay (Uscn. Life Science Inc., Wuhan, China). Serum total protein, albumin, triglycerides (TG), total cholesterol (TC), high-density lipoprotein cholesterol (HDL-C), and low-density lipoprotein cholesterol (LDL-C) were measured with an automatic biochemical analyzer (Sinnowa D240, Nanjing, China).

[5] = tested on: STZ-induced diabetic rats; test: Serum biochemical parameters (insulin, total protein, albumin) in STZ-induced diabetic rats; format: in vivo, rat; conditions: 4 weeks, compounds 100 mg/kg, glibenclamide 10 mg/kg
Procedure: as §3, §4, §5, §6

[6] = tested on: STZ-induced diabetic rats; test: Fasting blood glucose in STZ-induced diabetic rats, 4 weeks treatment; format: in vivo, rat; conditions: STZ diabetic rats
Procedure: Adult male albino rats of Sprague-Dawley rats (180–220 g) were obtained from the Guangdong Medical Lab Animal Center, and maintained under standard laboratory conditions in a temperature (25–30 °C) and light-controlled (12-h light/dark cycle) room with 35%–60% humidity. The animals were acclimatized for 10 days before the experiments and provided with rodent chow and water ad libitum. The investigation was conducted in accordance with the Guide for the Care and Use of Laboratory Animals and approved by the institutional Animal Ethics Committee.
as §3, §4, §5, §6

[7] = tested on: STZ-induced diabetic rats; test: Body weight and daily food intake of STZ-induced diabetic rats; format: in vivo, rat; conditions: compounds 100 mg/kg, glibenclamide 10 mg/kg, oral
Procedure: as §3, §4, §5

GLUT-2 = test: Western blot of GLUT-2 protein expression in Caco-2 cells; format: cell-based, Human; conditions: 100 μM, 6 h
Procedure: Caco-2 cells were cultured on 6-well plates at a density of 1 × 10^6 cells/well for 13 days. The cells were placed in serum-free medium for 24 h prior to the treatment. Then UA and its derivatives (100 μM) were added, after 6 h incubation, the cells were immediately washed three times with ice-cold PBS and lysed in 200 μL lysis buffer. Cells were allowed to lyse on ice, and then scraped, vortexed, sonicated and stored at −80 °C for further analysis. Protein concentrations were determined as described and cell lysate was subjected to western blot analysis. Briefly, proteins with same amount were denatured in sample buffer, separated on 8% SDS-PAGE gel, and transferred onto a polyvinylidene diflouride membrane. The membranes were blocked for 1 h at 37 °C with 10% defatted milk in Tris-buffered saline (10 mM Tris-HCl, pH 7.5 and 137 mM NaCl) containing 0.05% Tween 20 (TBST). Membranes were then incubated overnight at 4 °C in blocking buffer with antibodies for GLUT-2, SGLT-1 and β-actin (EMD, Millipore, Billerica, MA, USA). Membranes were washed with TBST and incubated 1 h with appropriate secondary antibodies. Revelation was performed by using the enhanced chemiluminescence reagent and blue-light sensitive film. Densitometric analysis of films was performed with a Hewlett-Packard scanner equipped with a transparent adaptor and UN-SCAN-IT software.

Caco-2 cells [8] = test: 2-NBDG glucose uptake by Caco-2 cell monolayers, Na+-independent (sodium free buffer); format: cell-based, Human; conditions: 100 μM compound, Na+-independent (KCl/K2HPO4 buffer)
Procedure: Caco-2 cells, which were derived from human colon adenocarcinoma, were selected for intestinal absorption studies because these cells express the morphological characteristics and most of the functional properties of differentiated small-intestinal enterocytes. Caco-2 cells were seeded on 24-well plates at the density of 2 × 10^5 cells/well. The medium was changed every 1–2 days, and the culture was carried out for 13 days. Then Caco-2 cells were placed in serum-free media for 24 h and then they were washed twice with Hanks’ balanced salt solution (HBSS, pH 7.5, 140 mM NaCl, 5 mM KCl, 1.2 mM Na2HPO4, 2 mM CaCl2, 1.2 mM MgSO4, 20 mM HEPES, 0.2% bovine serum albumin) before the uptake studies. When a sodium free buffer was required, NaCl and Na2HPO4 were replaced with equal amounts of KCl and K2HPO4, respectively. After washing, the cells were incubated for 15 min at room temperature in HBSS before the commencement of this experiment. The uptake studies were initiated by adding HBSS containing either control or test solution (100 μM) and […] (100 μM) for 30 min at 37 °C. Glucose uptake was stopped by adding twofold volume of ice-cold PBS and the wells were washed with ice-cold PBS three times. Fluorescent intensity was measured by a Multimodel Plate Reader (Tecan Infinity 200) with the 485 nmex and 535 nmemiss filter set before and after adding 2-NBDG. Then the cells were lysed in 200 μL lysis buffer (10 mM Tris-HCl pH = 7.4, 150 mM NaCl, 1% Triton-x-100, 1 mM EDTA, 0.1% SDS) and supplemented immediately before they were processed with 10 μg/mL PMSF. Cells were allowed to lyse on ice, and then vortexed and sonicated. The lysate was used for protein determination, protein concentrations were determined as described by BCA kit (Boster, Wuhan, China) with bovine serum albumin as standard.

SMILES	viability at 24 h, 100 µM [1] [%]	inhibition at 100 µM (Caco-2 cells [2]) [%]	GSH level in kidney ([3]; kidney of STZ diabetic rats)	SOD level in the liver and kidney ([3]; liver and kidney of STZ diabetic rats)	serum TC level vs diabetic control [4]	serum TG level vs diabetic control [4]	serum albumin level vs diabetic control [5]	serum insulin level vs diabetic control [5]	serum total protein level vs diabetic control [5]	effect on lowering fasting blood glucose levels ([6]; 100 mg/kg, 4 weeks)	Fasting Blood Glucose Level, Week 0 ([6]; Week 0 (before treatment), compounds 100 mg/kg, glibenclamide 10 mg/kg, n = 6) [mg/dL]	Fasting Blood Glucose Level, Week 1 ([6]; Week 1, compounds 100 mg/kg, glibenclamide 10 mg/kg daily, n = 6) [mg/dL]	Fasting Blood Glucose Level, Week 2 ([6]; Week 2, compounds 100 mg/kg, glibenclamide 10 mg/kg daily, n = 6) [mg/dL]	Fasting Blood Glucose Level, Week 3 ([6]; Week 3, compounds 100 mg/kg, glibenclamide 10 mg/kg daily, n = 6) [mg/dL]	Fasting Blood Glucose Level, Week 4 ([6]; Week 4, compounds 100 mg/kg, glibenclamide 10 mg/kg daily, n = 6) [mg/dL]	daily food intake vs untreated diabetic rats [7]	effect on expression of protein GLUT-2 (GLUT-2)	glucose uptake, % of the control value (Na+-independent) (Caco-2 cells [8])
CC(=O)O[C@H]1CC[C@@]2(C)C(CC[C@]3(C)C2CC=C2C4[C@@H](C)[C@H](C)CC[C@]4(C(=O)Nc4ccccc4F)CC[C@]23C)C1(C)C (stereo partly shown) [Compound 6]	86.1	13.9 ± 4.52	–	–	–	–	–	–	–	–	–	–	–	–	–	–	–	–
CCCC(=O)O[C@H]1CC[C@@]2(C)C(CC[C@]3(C)C2CC=C2C4[C@@H](C)[C@H](C)CC[C@]4(C(=O)O)CC[C@]23C)C1(C)C (stereo partly shown) [Compound 11]	–	2.29 ± 6.08	great effect	great improvement	significantly decreased	significantly decreased	no appreciable improvement	non-significant effect	no appreciable improvement	no significant effect	318.60 ± 17.64	365.40 ± 20.34	352.80 ± 27.36	324.00 ± 23.04	351.00 ± 26.64	reduce daily food intake significantly	significant effects on reducing	74 % of the control value
